Assay [1] deals with Puccinia recondita f. Sp. Tritici. Put plainly: Fungicidal activity, wheat leaf disc curative (brown rust). Format: in vivo. The note with it: foliar, 200 ppm in the applied formulation, wheat leaf segments cv. Kanzler, curative (applied 1 day after inoculation), compared to untreated control, 6 to 8 days after application, read-out: disease control. As to the method:
Leaf disks or leaf segments of various plant species are cut from plants grown in a greenhouse. The cut leaf disks or segments are placed in multiwell plates (24-well format) onto water agar. The leaf disks are sprayed with a test solution before (preventative) or after (curative) inoculation. Compounds to be tested are prepared as DMSO solutions (max. 10 mg/ml) which are diluted to the appropriate concentration with 0.025% Tween20 just before spraying. The inoculated leaf disks or segments are incubated under defined conditions (temperature, relative humidity, light, etc.) according to the respective test system. A single evaluation of disease level is carried out 3 to 14 days after inoculation, depending on the pathosystem. Percent disease control relative to the untreated check leaf disks or segments is then calculated.
Wheat leaf segments cv. Kanzler are placed on agar in multiwell plates (24-well format). The leaf segments are then inoculated with a spore suspension of the fungus. Plates were stored in darkness at 19° C. and 75% relative humidity. The formulated test compound diluted in water was applied 1 day after inoculation. The leaf segments were incubated at 19° C. and 75% relative humidity under a light regime of 12 hours light/12 hours darkness in a climate cabinet and the activity of a compound was assessed as percent disease control compared to untreated when an appropriate level of disease damage appears in untreated check leaf segments (6 to 8 days after application).
The following compounds at 200 ppm in the applied formulation give at least 80% disease control in this test when compared to untreated control leaf disks under the same conditions, which show extensive disease development.

Assay [2] shares this test system. Put plainly: Fungicidal activity, wheat leaf disc preventative (brown rust). Format: in vivo. The note with it: foliar, 200 ppm in the applied formulation, wheat leaf segments cv. Kanzler, compared to untreated control, 7 to 9 days after application, read-out: disease control. Put shortly: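 Preventative leaf-segment test: spray application of diluted formulated compound on wheat cv. Kanzler, spore inoculation after 1 day. Percent control relative to untreated segments rated 7 to 9 days post-application, with incubation at 19° C, 75% relative humidity, 12 h photoperiod.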

Assay [3] concerns Glomerella lacenarium (Colletotrichum lacenarium). In words: Fungicidal activity, liquid culture, cucumber preventative (anthracnose). Format: cell-based. Particulars: 20 ppm in the applied formulation, liquid culture in PDB, inhibition of growth measured photometrically 3 to 4 days after application, compared to untreated control, read-out: disease control. Put shortly: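 Spore-based broth assay: conidia mixed into PDB meet compound from a DMSO solution in 96-well format, incubate at 24° C., then inhibition of growth is determined by photometry 3–4 days later relative to the untreated check.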

Regarding `O=C(C1CCCO1)N(Cc1ccc(-c2noc(C(F)(F)F)n2)s1)C1CC1` (centres unmarked) [Compound 5.40, N-cyclopropyl-N-[[5-[5-(trifluoromethyl)-1,2,4-oxadiazol-3-yl]-2-thienyl]methyl]tetrahydrofuran-2-carboxamide], the pest or weed control at 200 ppm in assay [1] and in assay [2] was at least 80% each time. Further, in assay [3], the inhibition of growth at 20 ppm is at least 80%.

For `CCOC(=O)N(Cc1ccc(-c2noc(C(F)(F)F)n2)s1)OC` [Compound 1.28, ethyl N-methoxy-N-[[5-[5-(trifluoromethyl)-1,2,4-oxadiazol-3-yl]-2-thienyl]methyl]carbamate], the pest or weed control at 200 ppm in assay [1] and in assay [2] was at least 80% each time. Also, the inhibition of growth at 20 ppm in assay [3] is at least 80%.

With `CN(Cc1ccc(-c2noc(C(F)(F)F)n2)s1)C(=O)C1CCCO1` (centres unmarked) [Compound 5.22, N-methyl-N-[[5-[5-(trifluoromethyl)-1,2,4-oxadiazol-3-yl]-2-thienyl]methyl]tetrahydrofuran-2-carboxamide], the pest or weed control at 200 ppm in assay [1] and in assay [2] was at least 80% in each case. The inhibition of growth at 20 ppm in assay [3] was at least 80%.

In the case of `COC(C)C(=O)N(OC)C(C)c1ccc(-c2noc(C(F)(F)F)n2)s1` (centres unmarked) [Compound 1.49, N,2-dimethoxy-N-[1-[5-[5-(trifluoromethyl)-1,2,4-oxadiazol-3-yl]-2-thienyl]ethyl]propanamide], the pest or weed control at 200 ppm in assay [1] was at least 80%. Besides, the inhibition of growth at 20 ppm in assay [3] was at least 80%.

Consider `CON(Cc1ccc(-c2noc(C(F)(F)F)n2)s1)C(=O)N1CCCO1` [Compound 1.57, N-methoxy-N-[[5-[5-(trifluoromethyl)-1,2,4-oxadiazol-3-yl]-2-thienyl]methyl]isoxazolidine-2-carboxamide], for which the pest or weed control at 200 ppm in assay [1] was at least 80%. Moreover, in assay [3], the inhibition of growth at 20 ppm is at least 80%.

Take `CCC(C)C(=O)N(Cc1ccc(-c2noc(C(F)(F)F)n2)s1)OCC(F)F` (centres unmarked) [Compound 4.66, N-(2,2-difluoroethoxy)-2-methyl-N-[[5-[5-(trifluoromethyl)-1,2,4-oxadiazol-3-yl]-2-thienyl]methyl]butanamide]: the pest or weed control at 200 ppm in assay [1] is at least 80%. Besides, the inhibition of growth at 20 ppm in assay [3] was at least 80%.

As to `COCCN(CCOC)C(=O)N(Cc1ccc(-c2noc(C(F)(F)F)n2)s1)OC` [Compound 1.56, 1-methoxy-3,3-bis(2-methoxyethyl)-1-[[5-[5-(trifluoromethyl)-1,2,4-oxadiazol-3-yl]-2-thienyl]methyl]urea], the pest or weed control at 200 ppm in assay [1] was at least 80%. Also, in assay [3], the inhibition of growth at 20 ppm is at least 80%.

For the compound `COC(C)C(=O)N(Cc1ccc(-c2noc(C(F)(F)F)n2)s1)C(C)C` (centres unmarked) [Compound 4.18, N-isopropyl-2-methoxy-N-[[5-[5-(trifluoromethyl)-1,2,4-oxadiazol-3-yl]-2-thienyl]methyl]propanamide], the pest or weed control at 200 ppm in assay [1] is at least 80%. Also, in assay [3], the inhibition of growth at 20 ppm was at least 80%.

For `O=C(CC(F)(F)F)N(Cc1ccc(-c2noc(C(F)(F)F)n2)s1)OCC(F)F` [Compound 4.68, N-(2,2-difluoroethoxy)-3,3,3-trifluoro-N-[[5-[5-(trifluoromethyl)-1,2,4-oxadiazol-3-yl]-2-thienyl]methyl]propanamide], in assay [1], the pest or weed control at 200 ppm was at least 80%. Moreover, the inhibition of growth at 20 ppm in assay [3] was at least 80%.

With `CCC(C)C(=O)N(CC)Cc1ccc(-c2noc(C(F)(F)F)n2)s1` (centres unmarked) [Compound 4.27, N-ethyl-2-methyl-N-[[5-[5-(trifluoromethyl)-1,2,4-oxadiazol-3-yl]-2-thienyl]methyl]butanamide], the pest or weed control at 200 ppm in assay [1] was at least 80%. Besides, in assay [3], the inhibition of growth at 20 ppm is at least 80%.

`CC(C)N(Cc1ccc(-c2noc(C(F)(F)F)n2)s1)C(=O)C1CC1(F)F` (centres unmarked) [Compound 5.33, 2,2-difluoro-N-isopropyl-N-[[5-[5-(trifluoromethyl)-1,2,4-oxadiazol-3-yl]-2-thienyl]methyl]cyclopropanecarboxamide]: the pest or weed control at 200 ppm in assay [1] is at least 80%. Besides, the inhibition of growth at 20 ppm in assay [3] was at least 80%.

Turning to `CCN(Cc1ccc(-c2noc(C(F)(F)F)n2)s1)C(=O)C1CC1(F)F` (centres unmarked) [Compound 5.15, N-ethyl-2,2-difluoro-N-[[5-[5-(trifluoromethyl)-1,2,4-oxadiazol-3-yl]-2-thienyl]methyl]cyclopropanecarboxamide], the pest or weed control at 200 ppm in assay [1] was at least 80%. Further, the inhibition of growth at 20 ppm in assay [3] is at least 80%.

Take `O=C(CC1CC1)N(Cc1ccc(-c2noc(C(F)(F)F)n2)s1)OCC(F)F` [Compound 5.45, 2-cyclopropyl-N-(2,2-difluoroethoxy)-N-[[5-[5-(trifluoromethyl)-1,2,4-oxadiazol-3-yl]-2-thienyl]methyl]acetamide]: the pest or weed control at 200 ppm in assay [2] was at least 80%. For the same compound, the inhibition of growth at 20 ppm in assay [3] was at least 80%.

Take `O=S(=O)(Cc1ccccc1)N(Cc1ccc(-c2noc(C(F)(F)F)n2)s1)C1CC1` [Compound 6.33, N-cyclopropyl-1-phenyl-N-[[5-[5-(trifluoromethyl)-1,2,4-oxadiazol-3-yl]-2-thienyl]methyl]methanesulfonamide]: in assay [2], the pest or weed control at 200 ppm was at least 80%. Also, the inhibition of growth at 20 ppm in assay [3] is at least 80%.

On to `Cc1ccc(S(=O)(=O)N(C)Cc2ccc(-c3noc(C(F)(F)F)n3)s2)cc1` [Compound 6.28, N,4-dimethyl-N-[[5-[5-(trifluoromethyl)-1,2,4-oxadiazol-3-yl]-2-thienyl]methyl]benzenesulfonamide], for which the pest or weed control at 200 ppm in assay [1] is at least 80%.

For the compound `CCC(C)C(=O)N(Cc1ccc(-c2noc(C(F)(F)F)n2)s1)C1CC1` (centres unmarked) [Compound 4.57, N-cyclopropyl-2-methyl-N-[[5-[5-(trifluoromethyl)-1,2,4-oxadiazol-3-yl]-2-thienyl]methyl]butanamide], the pest or weed control at 200 ppm in assay [1] was at least 80%. In addition, the inhibition of growth at 20 ppm in assay [3] was at least 80%.

As for `CC(C)N(Cc1ccc(-c2noc(C(F)(F)F)n2)s1)C(=O)C1CCCO1` (centres unmarked) [Compound 5.31, N-isopropyl-N-[[5-[5-(trifluoromethyl)-1,2,4-oxadiazol-3-yl]-2-thienyl]methyl]tetrahydrofuran-2-carboxamide], the pest or weed control at 200 ppm in assay [1] is at least 80%. Also, in assay [3], the inhibition of growth at 20 ppm is at least 80%.

Consider `O=C(C(=O)N(Cc1ccc(-c2noc(C(F)(F)F)n2)s1)C1CC1)c1cccs1` [Compound 6.59, N-cyclopropyl-2-oxo-2-(2-thienyl)-N-[[5-[5-(trifluoromethyl)-1,2,4-oxadiazol-3-yl]-2-thienyl]methyl]acetamide], for which, in assay [2], the pest or weed control at 200 ppm is at least 80%. The inhibition of growth at 20 ppm in assay [3] was at least 80%.

For `CC(=O)N(Cc1ccc(-c2noc(C(F)(F)F)n2)s1)C1CC1` [Compound 4.61, N-cyclopropyl-N-[[5-[5-(trifluoromethyl)-1,2,4-oxadiazol-3-yl]-2-thienyl]methyl]acetamide], the pest or weed control at 200 ppm in assay [2] was at least 80%. In addition, in assay [3], the inhibition of growth at 20 ppm was at least 80%.

With `CC(C)N(Cc1ccc(-c2noc(C(F)(F)F)n2)s1)C(=O)C1CCC1` [Compound 5.29, N-isopropyl-N-[[5-[5-(trifluoromethyl)-1,2,4-oxadiazol-3-yl]-2-thienyl]methyl]cyclobutanecarboxamide], in assay [1], the pest or weed control at 200 ppm was at least 80%. In assay [3], the inhibition of growth at 20 ppm is at least 80%.

Consider `CN(Cc1ccc(-c2noc(C(F)(F)F)n2)s1)S(=O)(=O)C1CC1` [Compound 6.30, N-methyl-N-[[5-[5-(trifluoromethyl)-1,2,4-oxadiazol-3-yl]-2-thienyl]methyl]cyclopropanesulfonamide], for which the pest or weed control at 200 ppm in assay [2] was at least 80%. Besides, in assay [3], the inhibition of growth at 20 ppm was at least 80%.

On to `O=C(C(=O)N(Cc1ccc(-c2noc(C(F)(F)F)n2)s1)OCC(F)F)c1ccccc1` [Compound 6.61, N-(2,2-difluoroethoxy)-2-oxo-2-phenyl-N-[[5-[5-(trifluoromethyl)-1,2,4-oxadiazol-3-yl]-2-thienyl]methyl]acetamide], for which the pest or weed control at 200 ppm in assay [2] was at least 80%. Further, the inhibition of growth at 20 ppm in assay [3] is at least 80%.

Turning to `O=C(CC(F)(F)F)N(Cc1ccc(-c2noc(C(F)(F)F)n2)s1)C1CC1` [Compound 4.60, N-cyclopropyl-3,3,3-trifluoro-N-[[5-[5-(trifluoromethyl)-1,2,4-oxadiazol-3-yl]-2-thienyl]methyl]propanamide], the pest or weed control at 200 ppm in assay [2] was at least 80%. The inhibition of growth at 20 ppm in assay [3] is at least 80%.

Take `CCN(Cc1ccc(-c2noc(C(F)(F)F)n2)s1)S(=O)(=O)Cc1ccccc1` [Compound 6.13, N-ethyl-1-phenyl-N-[[5-[5-(trifluoromethyl)-1,2,4-oxadiazol-3-yl]-2-thienyl]methyl]methanesulfonamide]: the pest or weed control at 200 ppm in assay [2] is at least 80%. Besides, the inhibition of growth at 20 ppm in assay [3] is at least 80%.
